Read-outs that look alike come from different tables or passages of the source.

Experiment [1] deals with T1, BChE (Homo sapiens, UniProt P06276). The experiment can be described thus: Enzyme kinetics against BChE (Lineweaver–Burk). The class given is biochemical. How it is done:
(§1) The ChE inhibition reactions were determined by Ellman’s assay at different concentrations of 8a and 8g. […]. The inhibition constant Ki was calculated by the plot of slopes versus the corresponding concentrations of the inhibitors.

The target of experiment [2] is T1, BChE. The experiment can be described thus: biochemical. The conditions noted are these: mean ± SD; modified Ellman, 37 °C, pH 7.4. In general terms: In Ellman's method for cholinesterases, released thiocholine reacts with DTNB.
In experiment [3] the target is T2, AChE (Homo sapiens, UniProt P22303). The experiment can be described thus: biochemical. The settings on record: mean ± SD; modified Ellman, 37 °C, pH 7.4.
Experiment [4] addresses T1, BChE. The conditions noted are these: previously reported; cited from earlier work.
The test system of a further experiment is Aß-aggregation. The conditions noted are these: at 10 µM; previously reported; cited from earlier work.
Experiment [5] concerns the target T1, BChE. The settings on record: at 10 µM; previously reported; cited from earlier work.
Another experiment concerns hBACE-1. The settings on record: at 50 µM; previously reported; cited from earlier work.
In experiment [6] the target is T2, AChE. The experiment can be described thus: Enzyme kinetics against AChE (Lineweaver–Burk). It counts as biochemical. How it is done:
as §1

The mark [7] stands for this setting: secondary plot of Lineweaver–Burk plots.

T1 sequence (P06276 29-602): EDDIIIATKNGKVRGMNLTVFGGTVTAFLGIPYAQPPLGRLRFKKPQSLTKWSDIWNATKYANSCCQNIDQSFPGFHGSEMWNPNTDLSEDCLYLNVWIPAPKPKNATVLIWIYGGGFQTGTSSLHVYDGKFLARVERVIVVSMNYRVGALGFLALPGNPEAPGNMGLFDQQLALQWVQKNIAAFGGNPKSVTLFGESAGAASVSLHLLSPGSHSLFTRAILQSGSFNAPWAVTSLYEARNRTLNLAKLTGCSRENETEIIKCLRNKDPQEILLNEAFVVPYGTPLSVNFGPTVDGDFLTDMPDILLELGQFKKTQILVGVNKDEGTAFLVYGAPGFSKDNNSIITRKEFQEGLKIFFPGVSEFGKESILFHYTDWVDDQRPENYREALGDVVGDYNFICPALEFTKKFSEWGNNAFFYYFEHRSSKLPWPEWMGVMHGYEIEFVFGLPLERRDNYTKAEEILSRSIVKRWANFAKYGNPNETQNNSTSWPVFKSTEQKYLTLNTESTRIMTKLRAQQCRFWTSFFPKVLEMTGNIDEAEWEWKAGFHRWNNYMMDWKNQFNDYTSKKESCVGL
T2 sequence (P22303 32-614): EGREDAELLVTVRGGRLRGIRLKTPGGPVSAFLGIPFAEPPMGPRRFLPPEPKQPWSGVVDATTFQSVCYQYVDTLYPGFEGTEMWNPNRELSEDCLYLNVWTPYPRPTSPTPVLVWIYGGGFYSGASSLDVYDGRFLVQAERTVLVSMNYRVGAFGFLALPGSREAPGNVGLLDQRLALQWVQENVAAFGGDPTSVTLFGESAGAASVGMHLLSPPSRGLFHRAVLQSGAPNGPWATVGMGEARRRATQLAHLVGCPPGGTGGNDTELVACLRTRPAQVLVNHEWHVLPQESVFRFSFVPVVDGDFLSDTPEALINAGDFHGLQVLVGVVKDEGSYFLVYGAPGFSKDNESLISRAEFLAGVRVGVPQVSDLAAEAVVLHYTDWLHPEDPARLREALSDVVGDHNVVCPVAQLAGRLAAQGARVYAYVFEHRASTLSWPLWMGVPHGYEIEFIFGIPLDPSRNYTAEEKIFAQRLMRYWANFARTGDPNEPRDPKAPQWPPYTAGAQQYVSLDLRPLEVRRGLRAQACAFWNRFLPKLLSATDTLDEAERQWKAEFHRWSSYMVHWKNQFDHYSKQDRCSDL

As usually defined, the Ki is a measure of affinity in units of concentration, obtained from inhibition or displacement. The low end stands for tighter binding, the high end for weaker binding. By IC50 is commonly meant the point on the concentration scale where inhibition reaches its midpoint. For `CCN(CC(=O)NN=Cc1ccc(OCCCN2C(=O)c3ccccc3C2=O)cc1)Cc1ccccc1` [Compound 8g, 2-(benzyl(ethyl)amino)-Nʹ-(4-(3-(1,3-dioxoisoindolin-2-yl)propoxy)benzylidene)acetohydrazide], on BChE [1] (Lineweaver–Burk plot), the “mode of inhibition against BChE” value is “competitive”. On BChE [1] (setting [7]), the Ki was 3650 nM. The IC50 came out at 5700 ± 200 nM on BChE [2] and 860 ± 20 nM against AChE [3].

For `CN(C)C(=O)Oc1cccc([N+](C)(C)C)c1` [neostigmine], the IC50 on BChE [4] was 84 nM.

With `Oc1ccc(/C=C/c2cc(O)cc(O)c2)cc1` [resveratrol], the Aß-aggregation inhibition in the experiment with Aß-aggregation was 78.5% ± 5.2.

For the compound “2-(benzylamino-2-hydroxyalkyl)isoindoline-1,3-dione”, the BChE inhibition on BChE [5] was 14.1% ± 5.8. The hBACE-1 inhibition in the experiment on hBACE-1 was 43.7%. Moreover, the Aß-aggregation inhibition with Aß-aggregation is 24.9%.

Take `CCN(CC(=O)NN=Cc1cccc(OCCCN2C(=O)c3ccccc3C2=O)c1)Cc1ccccc1` [Compound 8d, 2-(benzyl(ethyl)amino)-N'-(3-(3-(1,3-dioxoisoindolin-2-yl)propoxy)benzylidene)acetohydrazide]: the IC50 on BChE [2] turned out to be 11800 ± 500 nM; on AChE [3], 160 ± 30 nM.

Take `CN(CC(=O)NN=Cc1ccccc1OCCCN1C(=O)c2ccccc2C1=O)Cc1ccccc1` [Compound 8a, 2-(benzyl(methyl)amino)-Nʹ-(2-(3-(1,3-dioxoisoindolin-2-yl)propoxy)benzylidene)acetohydrazide]: on AChE [6] (Lineweaver–Burk plot), the “mode of inhibition against AChE” value was “competitive”. For the same compound, the Ki on AChE [6] (setting [7]) amounted to 88.6 nM. The IC50 against BChE [2] was 30200 ± 2800 nM; against AChE [3], 110 ± 50 nM.

In the case of `CN(CC(=O)NN=Cc1ccc(OCCCN2C(=O)c3ccccc3C2=O)cc1)Cc1ccccc1` [Compound 8f, 2-(benzyl(methyl)amino)-Nʹ-(4-(3-(1,3-dioxoisoindolin-2-yl)propoxy)benzylidene)acetohydrazide], the IC50 on BChE [2] was determined as 15700 ± 1200 nM; against AChE [3], 320 ± 20 nM.

Turning to `CCN(CC(=O)NN=Cc1cc([N+](=O)[O-])ccc1OCCCN1C(=O)c2ccccc2C1=O)Cc1ccccc1` [Compound 8c, 2-(benzyl(ethyl)amino)-Nʹ-(2-(3-(1,3-dioxoisoindolin-2-yl)propoxy)-5-nitrobenzylidene)acetohydrazide], the IC50 at BChE [2] worked out at 21800 ± 1300 nM; against AChE [3], 160 ± 40 nM.

Regarding `CCN(CC(=O)NN=Cc1ccc(OCCCN2C(=O)c3ccccc3C2=O)c(OC)c1)Cc1ccccc1` [Compound 8h, 2-(benzyl(ethyl)amino)-Nʹ-(4-(3-(1,3-dioxoisoindolin-2-yl)propoxy)-3-methoxybenzylidene)acetohydrazide], the figures for the IC50 at BChE [2] and against AChE [3] were 13200 ± 1400 nM and 170 ± 60 nM, respectively.

Take `CCN(CC(=O)NN=Cc1ccccc1OCCCN1C(=O)c2ccccc2C1=O)Cc1ccccc1` [Compound 8b, 2-(benzyl(ethyl)amino)-Nʹ-(2-(3-(1,3-dioxoisoindolin-2-yl)propoxy)benzylidene)acetohydrazide]: the IC50 at BChE [2] was 26800 ± 800 nM; against AChE [3], 180 ± 10 nM.

Regarding `CCN(CC(=O)NN=Cc1ccc(OC)c(OCCCN2C(=O)c3ccccc3C2=O)c1)Cc1ccccc1` [Compound 8e, 2-(benzyl(ethyl)amino)-Nʹ-(3-(3-(1,3-dioxoisoindolin-2-yl)propoxy)-4-methoxybenzylidene)acetohydrazide], the IC50 at BChE [2] stood at 14700 ± 200 nM; against AChE [3], 210 ± 30 nM.

Source of the values: paper PMC10985906, “Anticholinesterase activities of novel isoindolin-1,3-dione-based acetohydrazide derivatives: design, synthesis, biological evaluation, molecular dynamic study” (BMC Chemistry, 2024).
